Assays:
Type in all cases: biochemical
[1] = biological target: T1, SIK3 (Homo sapiens, UniProt Q9Y2K2); assay: ADP-Glo kinase assay, SIK3
T1 construct: purchased SignalChem S12-11G-100
Description: (§1) The ADP-Glo™ kinase assay is a luminescent technology assay which measures the ADP formed from a kinase reaction. […] In a second step the kinase reactions are terminated and all the remaining ATP is depleted. In a final step the ADP is converted into ATP and this newly synthesized ATP is measured by using a luciferase/luciferin reaction. The generated light is measured using an Envision plate reader, wherein the luminescent signal obtained positively correlates with the kinase activity.
(§2) 1% DMSO and 10 μM staurosporine final concentrations are used as negative and positive controls.
(§3) 2 μL enzyme-substrate mixture is added to the assay plates.
(§4) The reaction is started by adding 2 μL diluted ATP on the assay plates. Plates are centrifuged for a few seconds at 1000 rpm and gently shaken for […] followed by an incubation at RT for 120 min.
(§5) The reactions are stopped and the unconsumed ATP is depleted by adding 5 μL ADP-Glo Reagent (Promega, Cat #V9120) to the reaction. The plates are centrifuged for a few seconds at 1000 rpm and incubated at RT for 40 min (ATP depletion).
(§6) The ADP is converted to ATP and luciferase and luciferin is introduced to detect ATP by adding 10 μL Kinase Detection Reagent (Promega, Cat #V913B+V914r) to the reaction. The plates are centrifuged for a few seconds at 1000 rpm and incubated at RT for 30 min (ADP detection).
(§7) Luminescence is measured on an Envision plate reader (PerkinElmer Inc.).

[2] = biological target: T2, SIK2 (Homo sapiens, UniProt Q9H0K1); assay: ADP-Glo kinase assay, SIK2
T2 construct: purchased ThermoFisher Scientific PV4792
T2 sequence (Q9H0K1 whole entry): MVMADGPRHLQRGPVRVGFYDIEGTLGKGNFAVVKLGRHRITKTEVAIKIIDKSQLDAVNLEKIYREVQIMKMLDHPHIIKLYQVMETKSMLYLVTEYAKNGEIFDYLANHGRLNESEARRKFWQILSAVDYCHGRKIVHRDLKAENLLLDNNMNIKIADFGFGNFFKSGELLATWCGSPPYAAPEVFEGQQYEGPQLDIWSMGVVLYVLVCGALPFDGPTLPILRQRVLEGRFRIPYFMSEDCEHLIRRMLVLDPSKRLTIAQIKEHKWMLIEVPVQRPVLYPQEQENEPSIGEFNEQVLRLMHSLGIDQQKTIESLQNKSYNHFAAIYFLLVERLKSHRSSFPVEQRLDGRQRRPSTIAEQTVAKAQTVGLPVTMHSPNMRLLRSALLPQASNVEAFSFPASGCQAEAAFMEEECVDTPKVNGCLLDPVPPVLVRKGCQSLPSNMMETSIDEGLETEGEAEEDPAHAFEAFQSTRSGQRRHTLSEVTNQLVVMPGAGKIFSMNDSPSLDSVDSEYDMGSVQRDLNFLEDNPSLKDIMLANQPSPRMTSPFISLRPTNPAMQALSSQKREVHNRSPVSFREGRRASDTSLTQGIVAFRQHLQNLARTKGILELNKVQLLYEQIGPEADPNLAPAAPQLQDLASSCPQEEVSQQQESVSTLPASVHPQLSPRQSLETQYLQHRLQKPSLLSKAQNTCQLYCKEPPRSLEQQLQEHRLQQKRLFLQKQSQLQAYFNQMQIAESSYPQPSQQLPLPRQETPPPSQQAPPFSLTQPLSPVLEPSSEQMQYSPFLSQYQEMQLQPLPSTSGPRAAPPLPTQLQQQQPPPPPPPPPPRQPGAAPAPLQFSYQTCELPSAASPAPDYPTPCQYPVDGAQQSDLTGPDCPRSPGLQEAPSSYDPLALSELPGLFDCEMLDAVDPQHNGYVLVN
Description: as §1, §2, §3, §4, §5, §6, §7

[3] = biological target: T3, SIK1 (Homo sapiens, UniProt P57059); assay: ADP-Glo kinase assay, SIK1
T3 construct: purchased Carna Biosciences 02-131
T3 sequence (P57059 whole entry): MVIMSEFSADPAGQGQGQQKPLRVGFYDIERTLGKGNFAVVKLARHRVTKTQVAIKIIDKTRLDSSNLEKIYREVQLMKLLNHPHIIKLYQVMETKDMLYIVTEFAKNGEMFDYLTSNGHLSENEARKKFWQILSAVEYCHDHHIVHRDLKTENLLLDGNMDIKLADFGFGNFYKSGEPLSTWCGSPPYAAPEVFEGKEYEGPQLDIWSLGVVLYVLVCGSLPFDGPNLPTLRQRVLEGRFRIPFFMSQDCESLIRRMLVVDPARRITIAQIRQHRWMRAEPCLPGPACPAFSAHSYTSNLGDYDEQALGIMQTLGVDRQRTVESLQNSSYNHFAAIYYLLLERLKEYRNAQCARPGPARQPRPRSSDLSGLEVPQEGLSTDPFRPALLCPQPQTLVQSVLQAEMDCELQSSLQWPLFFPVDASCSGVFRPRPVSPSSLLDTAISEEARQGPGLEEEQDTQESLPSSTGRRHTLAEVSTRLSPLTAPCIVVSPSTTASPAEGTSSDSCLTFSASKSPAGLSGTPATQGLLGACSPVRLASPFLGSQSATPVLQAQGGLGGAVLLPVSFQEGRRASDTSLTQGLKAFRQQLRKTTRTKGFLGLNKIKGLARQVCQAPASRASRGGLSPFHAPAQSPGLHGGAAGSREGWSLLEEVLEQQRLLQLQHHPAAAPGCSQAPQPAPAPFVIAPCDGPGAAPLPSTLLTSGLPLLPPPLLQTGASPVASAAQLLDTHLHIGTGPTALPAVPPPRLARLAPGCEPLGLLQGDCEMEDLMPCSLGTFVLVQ
Description: as §1, §2, §3, §4, §5, §6, §7

T1 sequence (Q9Y2K2 59-365 limits assumed): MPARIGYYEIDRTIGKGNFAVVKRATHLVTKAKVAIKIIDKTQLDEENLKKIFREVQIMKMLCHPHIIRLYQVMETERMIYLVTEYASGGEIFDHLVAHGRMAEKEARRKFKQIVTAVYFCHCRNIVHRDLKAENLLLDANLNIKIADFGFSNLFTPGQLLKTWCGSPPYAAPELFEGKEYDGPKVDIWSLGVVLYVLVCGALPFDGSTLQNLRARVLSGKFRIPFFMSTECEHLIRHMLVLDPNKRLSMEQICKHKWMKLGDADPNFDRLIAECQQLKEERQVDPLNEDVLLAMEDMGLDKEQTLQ

Compound	IC50 [1] [nM]	IC50 [2] [nM]	IC50 [3] [nM]
COc1cc(-c2cnc3cc(C4CN(C(=O)OC(C)(C)C)C4)ccn23)cc(OC)c1C(=O)NCC(F)(F)F [Cpd 58, tert-butyl 3-[3-[3,5-dimethoxy-4-(2,2,2-trifluoroethylcarbamoyl)phenyl]imidazo[1,2-a]pyridin-7-yl]azetidine-1-carboxylate]	10 to 100	100 to 500	100 to 500
COc1cc(-c2cnc3cc(C4CN(C(=O)OC(C)(C)C)C4)ccn23)cc(OC(F)F)c1C(=O)NC1CC1 [Cpd 59, tert-butyl 3-[3-[4-(cyclopropylcarbamoyl)-3-(difluoromethoxy)-5-methoxy-phenyl]imidazo[1,2-a]pyridin-7-yl]azetidine-1-carboxylate]	0.01 to 10	10 to 100	10 to 100
COc1cc(-c2cnc3cc(C4CCN(C(=O)OC(C)(C)C)CC4)ccn23)cc(OC(F)F)c1C(=O)NC1CC1 [Cpd 60, tert-butyl 4-[3-[4-(cyclopropylcarbamoyl)-3-(difluoromethoxy)-5-methoxy-phenyl]imidazo[1,2-a]pyridin-7-yl]piperidine-1-carboxylate]	0.01 to 10	10 to 100	100 to 500
COc1cc(-c2cnc3cc(C(C)(C)c4noc(C)n4)ccn23)cc(OC(F)F)c1C(=O)NC1CC1 [Cpd 61, N-cyclopropyl-2-(difluoromethoxy)-6-methoxy-4-[7-[1-methyl-1-(5-methyl-1,2,4-oxadiazol-3-yl)ethyl]imidazo[1,2-a]pyridin-3-yl]benzamide]	10 to 100	> 500	> 500
COc1cc(-c2cnc3cc(C4CCCNC4)ccn23)cc(OC(F)F)c1C(=O)NC1CC1 (stereo not drawn) [Cpd 65, N-cyclopropyl-2-(difluoromethoxy)-6-methoxy-4-[7-(3-piperidyl)imidazo[1,2-a]pyridin-3-yl]benzamide]	0.01 to 10	10 to 100	> 500
COc1cc(-c2cnc3cc(C4CCNCC4)ccn23)cc(OC(F)F)c1C(=O)NC1CC1 [Cpd 66, N-cyclopropyl-2-(difluoromethoxy)-6-methoxy-4-[7-(4-piperidyl)imidazo[1,2-a]pyridin-3-yl]benzamide]	10 to 100	10 to 100	> 500
COc1cc(-c2cnc3cc(C(C)(C)C#N)ccn23)cc(OC(F)F)c1C(=O)NC(C)C(F)F (stereo not drawn) [Cpd 71, 4-[7-(1-cyano-1-methyl-ethyl)imidazo[1,2-a]pyridin-3-yl]-2-(difluoromethoxy)-N-(2,2-difluoro-1-methyl-ethyl)-6-methoxy-benzamide]	10 to 100	> 500	> 500

Further lines, results first:

IC50 [1] [nM]	IC50 [2] [nM]	IC50 [3] [nM]	Compound
10 to 100	> 500	> 500	COc1cc(-c2cnc3cc(C(C)(C)C#N)ccn23)cc(OC(F)F)c1C(=O)NCC(C)C [Cpd 72, 4-[7-(1-cyano-1-methyl-ethyl)imidazo[1,2-a]pyridin-3-yl]-2-(difluoromethoxy)-N-isobutyl-6-methoxy-benzamide]
10 to 100	> 500	> 500	COc1cc(-c2cnc3cc(C(C)(C)C#N)ccn23)cc(OC(F)F)c1C(=O)NC1CS(=O)(=O)C1 [Cpd 73, 4-[7-(1-cyano-1-methyl-ethyl)imidazo[1,2-a]pyridin-3-yl]-2-(difluoromethoxy)-N-(1,1-dioxothietan-3-yl)-6-methoxy-benzamide]
10 to 100	> 500	> 500	COc1cc(-c2cnc3cc(C(C)(C)C#N)ccn23)cc(OC(F)F)c1C(=O)N1CC(O)(C2CC2)C1 [Cpd 74, 2-[3-[4-(3-cyclopropyl-3-hydroxy-azetidine-1-carbonyl)-3-(difluoromethoxy)-5-methoxy-phenyl]imidazo[1,2-a]pyridin-7-yl]-2-methyl-propanenitrile]
0.01 to 10	100 to 500	> 500	COc1cc(-c2cnc3cc(C(C)(C)C#N)ccn23)cc(OC(F)F)c1C(=O)N1CC(O)(C(F)(F)F)C1 [Cpd 75, 2-[3-[3-(difluoromethoxy)-4-[3-hydroxy-3-(trifluoromethyl)azetidine-1-carbonyl]-5-methoxy-phenyl]imidazo[1,2-a]pyridin-7-yl]-2-methyl-propanenitrile]

Reference: patent publication US12391679B2, “Benzamide-substituted bicyclic imidazo- and pyrazolo-fused -pyridine, -pyrimide, and -pyridazine compounds for treatment of inflammatory diseases” (ONCO3R Therapeutics BV, priority 2019, dated 2025)
